Laboratory results: ChEMBL document CHEMBL5154896, “Discovery of a Novel Class of d-Amino Acid Oxidase Inhibitors Using the Schrödinger Computational Platform” (J Med Chem, 2022)

Legend:
D-amino-acid oxidase [1] = target: T1, D-amino-acid oxidase (Homo sapiens, UniProt P14920); test: Inhibition of recombinant full length human DAO preincubated with compound for 20 mins measured after 4 hrs by Amplex red and horseradish peroxidase based fluorescence assay
D-amino-acid oxidase [2] = target: T1, D-amino-acid oxidase; test: Inhibition of full length human DAO transfected in CHO-K1 cells incubated for 30 mins by Amplex red and horseradish peroxidase based fluorescence assay; format: cell-based
D-amino-acid oxidase [3] = target: D-amino-acid oxidase (Mus musculus, UniProt P18894); test: Inhibition of full length mouse DAO transfected with CHO-K1 cells incubated for 30 mins by Amplex red and horseradish peroxidase based fluorescence assay; format: cell-based
D-amino-acid oxidase (Mus musculus, UniProt P18894), sequence (P18894 whole entry): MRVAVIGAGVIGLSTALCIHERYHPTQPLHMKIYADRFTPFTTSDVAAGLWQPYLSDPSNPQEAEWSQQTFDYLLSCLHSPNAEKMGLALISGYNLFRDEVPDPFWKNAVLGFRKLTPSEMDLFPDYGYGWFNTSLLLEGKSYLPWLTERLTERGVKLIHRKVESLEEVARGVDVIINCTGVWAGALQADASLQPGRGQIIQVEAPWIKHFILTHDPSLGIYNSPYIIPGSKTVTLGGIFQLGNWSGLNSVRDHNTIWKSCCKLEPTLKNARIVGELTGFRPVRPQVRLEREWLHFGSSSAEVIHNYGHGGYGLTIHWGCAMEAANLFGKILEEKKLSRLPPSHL

[4] = Efflux ratio of apparent permeability across basolateral to apical side over apical to basolateral side in MDCK-MDR1 cells; details: dog
[5] = Apparent permeability across apical to basolateral membrane in MDCK-MDR1 cells by LC-MS/MS analysis; details: dog
[6] = Unbound brain-to-plasma concentration ratio in C57Bl/6 mouse at 2 mg/kg, po or 0.5 mg/kg,iv by LC-MS-MS analysis; format: ADME, organism-based; details: mouse, brain, po, 2 mg/kg, BLD = below limit of detection
[7] = Oral bioavailability in C57/BL6 mouse at 2 mg/kg by LC-MS-MS analysis; format: ADME, organism-based; details: in vivo
[8] = Unbound drug concentration in C57Bl/6 mouse plasma at 2 mg/kg, po or 0.5 mg/kg,iv by LC-MS-MS analysis; format: ADME, organism-based; details: mouse, in vivo, po, 2 mg/kg, BLD = below limit of detection
[9] = Brain to plasma permeability coefficient, Kp in C57Bl/6 mouse 2 mg/kg, po or 0.5 mg/kg,iv by LC-MS-MS analysis; format: ADME, organism-based; details: mouse, brain, po, 2 mg/kg, BLD = below limit of detection
[10] = Dose normalized AUC in C57/BL6 mouse at 2 mg/kg, po by LC-MS-MS analysis; format: ADME, organism-based; details: in vivo
[11] = Unbound drug concentration in C57Bl/6 mouse brain at 2 mg/kg, po or 0.5 mg/kg,iv by LC-MS-MS analysis; format: ADME, organism-based; details: mouse, in vivo, po, 2 mg/kg, BLD = below limit of detection
[12] = Volume of distribution at steady state in C57/BL6 mouse at 2 mg/kg, po or 0.5 mg/kg,iv by LC-MS-MS analysis; format: ADME, organism-based; details: in vivo

T1 sequence (P14920 whole entry): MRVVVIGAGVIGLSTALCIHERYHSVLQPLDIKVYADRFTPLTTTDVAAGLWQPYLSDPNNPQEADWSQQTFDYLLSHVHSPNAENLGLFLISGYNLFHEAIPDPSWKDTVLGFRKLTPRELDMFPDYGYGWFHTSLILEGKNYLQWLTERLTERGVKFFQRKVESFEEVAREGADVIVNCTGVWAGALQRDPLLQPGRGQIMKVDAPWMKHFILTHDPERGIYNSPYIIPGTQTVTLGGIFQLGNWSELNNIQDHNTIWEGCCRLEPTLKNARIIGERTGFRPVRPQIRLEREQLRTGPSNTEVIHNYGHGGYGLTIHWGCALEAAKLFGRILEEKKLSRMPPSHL

SMILES | IC50 (D-amino-acid oxidase [1]) [nM] | EC50 (D-amino-acid oxidase [2]) [nM] | EC50 (D-amino-acid oxidase [3]) [nM] | also measured
COc1ccc(CCc2c[nH]c(=O)c(=O)[nH]2)cc1 | 320 |  |  | 
O=c1[nH]cc(SCc2ccc(F)c(F)c2)[nH]c1=O | 300 | 810 |  | 
N#Cc1ccc2c(c1)OC[C@@H](c1c[nH]c(=O)c(=O)[nH]1)S2 | 20 | 630 | 780 | efflux ratio [4]: 3.1; Papp A→B [5]: 3.1 ×10⁻⁶ cm/s
O=c1[nH]cc(Cc2ccc(Cl)cc2)[nH]c1=O | 3300 |  |  | 
O=c1[nH]cc(CCc2cccc(Cl)c2)[nH]c1=O | 190 | 3500 |  | efflux ratio [4]: 0.9; Papp A→B [5]: 6.8 ×10⁻⁶ cm/s
N#Cc1ccc(SCc2c[nH]c(=O)c(=O)[nH]2)cc1F | 46 | 440 | 970 | 
O=c1[nH]c(=O)n(O)cc1CCc1ccc(Cl)cc1 |  |  |  | K(p,uu,brain) [6]: Bld; bioavailability [7]: 9%; Fu [8]: Bld; Kp [9]: Bld; AUC/dose [10]: 13.6 ng·h/mL; Papp A→B [5]: 24 ×10⁻⁶ cm/s; Fu [11]: Bld; Vdss [12]: 1.9 L/kg
O=c1[nH]cc(SCc2ccc(C(F)F)cc2)[nH]c1=O | 70 | 450 | 590 | 
N#Cc1ccc(SCc2c[nH]c(=O)c(=O)[nH]2)cc1Cl |  |  | 560 | 
O=c1[nH]cc(CCc2ccc3ncccc3c2)[nH]c1=O | 580 | 8400 |  | 
O=c1[nH]cc(CCc2cc(Cl)cc(Cl)c2)[nH]c1=O | 2500 |  |  | 
O=c1[nH]cc([C@@H]2COc3cc(C(F)F)ccc3S2)[nH]c1=O |  |  | 290 | 
O=c1[nH]cc([C@@H]2COc3cc(F)ccc3S2)[nH]c1=O | 94 | 560 | 540 | 
O=c1[nH]cc(CSc2cnc3cc(Cl)ccc3c2)[nH]c1=O | 87 | 1100 | 1400 | 
N#Cc1ccc(CCc2c[nH]c(=O)c(=O)[nH]2)cc1 | 5800 | 1800 | 1500 | efflux ratio [4]: 0.6; Papp A→B [5]: 3 ×10⁻⁶ cm/s
O=c1[nH]cc(CCc2ccc(OC(F)F)nc2)[nH]c1=O | 670 | 8200 |  | 
Cc1n[nH]c2cc(CCc3c[nH]c(=O)c(=O)[nH]3)ccc12 | 640 |  | 4300 | 
N#Cc1ccc(CSc2c[nH]c(=O)c(=O)[nH]2)cc1F |  |  | 680 | 
C[C@@]1(c2c[nH]c(=O)c(=O)[nH]2)COc2cc(S(C)(=O)=O)ccc2S1 | 51 | 390 | 1500 | 
CS(=O)(=O)c1ccc(SCc2c[nH]c(=O)c(=O)[nH]2)cc1 |  |  | 2300 | 
O=c1[nH]c(Cl)c(CCc2ccc(C(F)(F)F)cc2)[nH]c1=O | 1500 | 500 |  | 
O=c1[nH]cc(CCc2ccc(Cl)cc2)[nH]c1=O | 320 |  |  | 
C[C@@]1(c2c[nH]c(=O)c(=O)[nH]2)COc2cc(C(F)(F)F)ccc2S1 |  |  | 260 | 
O=c1[nH]cc(CCc2ccc(-c3cc(O)n[nH]3)c(F)c2)[nH]c1=O | 320 | 2900 | 1800 | efflux ratio [4]: 0.1; Papp A→B [5]: 21 ×10⁻⁶ cm/s

SMILES | IC50 (D-amino-acid oxidase [1]) [nM] | EC50 (D-amino-acid oxidase [2]) [nM] | EC50 (D-amino-acid oxidase [3]) [nM] | also measured
O=c1[nH]cc(SCc2ccc(Cl)cc2)[nH]c1=O | 150 | 400 | 510 | 
O=c1[nH]cc(C2COc3ccccc3S2)[nH]c1=O (racemic) | 406 | 1760 | 720 | 
N#Cc1cccc(CSc2c[nH]c(=O)c(=O)[nH]2)c1 | 440 | 3800 |  | 
C[C@@]1(c2c[nH]c(=O)c(=O)[nH]2)COc2cc(Cl)ccc2S1 |  |  | 100 | 
CS(=O)(=O)c1ccc2c(c1)OC[C@@H](c1c[nH]c(=O)c(=O)[nH]1)S2 | 25 | 270 | 1200 | 
O=c1[nH]cc(CCc2ccccc2)[nH]c1=O | 340 |  |  | efflux ratio [4]: 0.4; Papp A→B [5]: 4 ×10⁻⁶ cm/s
N#Cc1[nH]c(=O)c(=O)[nH]c1CCc1ccc(C(F)(F)F)cc1 | 250 | 540 | 340 | 
O=c1[nH]cc([C@@H]2COc3cc(Cl)ccc3S2)[nH]c1=O | 21 | 140 | 220 | 
CC1(c2c[nH]c(=O)c(=O)[nH]2)COc2ccccc2S1 (racemic) |  |  | 250 | 
O=c1[nH]cc(CSc2ccc(S(F)(F)(F)(F)F)cc2)[nH]c1=O | 80 | 710 | 790 | 
O=c1[nH]cc(SCc2ccc(S(F)(F)(F)(F)F)cc2)[nH]c1=O |  |  | 500 | 
N#Cc1ccc(CSc2c[nH]c(=O)c(=O)[nH]2)cc1 | 43 | 250 | 310 | 
CS(=O)(=O)c1ccc(CSc2c[nH]c(=O)c(=O)[nH]2)cc1 | 90 | 440 | 540 | 
C[C@@]1(c2c[nH]c(=O)c(=O)[nH]2)COc2cc(C#N)ccc2S1 | 20 | 240 | 120 | 
O=c1[nH]cc(SCc2ccc(C(F)(F)F)nc2)[nH]c1=O | 250 | 1100 | 590 | efflux ratio [4]: 0.4; Papp A→B [5]: 2.4 ×10⁻⁶ cm/s
O=c1[nH]cc(CCc2ccccc2Cl)[nH]c1=O | 6200 |  |  | 
O=c1[nH]cc(CSc2ccc(Cl)cc2)[nH]c1=O | 130 | 680 | 390 | 
O=c1[nH]c(=O)n(O)cc1CCc1ccccc1 |  |  |  | Papp A→B [5]: 15 ×10⁻⁶ cm/s
O=c1[nH]cc(C2COc3cc(C(F)(F)F)ccc3S2)[nH]c1=O (stereo not drawn) | 25 | 290 | 430 | 
N#Cc1ccc(CCc2c[nH]c(=O)c(=O)[nH]2)cc1F | 180 | 1900 |  | efflux ratio [4]: 0.5; Papp A→B [5]: 3.3 ×10⁻⁶ cm/s
Cc1[nH]c(=O)c(=O)[nH]c1CCc1ccc(C(F)(F)F)cc1 | 3900 |  |  | efflux ratio [4]: 2.4; Papp A→B [5]: 4.8 ×10⁻⁶ cm/s
O=c1[nH]cc(SCc2ccc(C(F)(F)F)cc2)[nH]c1=O |  |  | 240 | 
O=c1[nH]nc(Cc2ccc(Cl)cc2)cc1O |  |  | 4.2 | 
